Experimental data: PubChem BioAssay (NCI)
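Each compound was tested at five concentrations against cells in 96-well plates for 48 hours. TGI denotes the concentration required for complete inhibition of growth.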

How the values were obtained:
Experiment in all cases: inhibition of tumour cell growth, NCI panel, 48 h
KM12 colon = test system: KM12 colon
NCI-H226 lung = test system: NCI-H226 lung
CCRF-CEM leukemia = test system: CCRF-CEM leukemia
HOP-18 NSCLC = test system: HOP-18 NSCLC
OVCAR-3 ovarian = test system: OVCAR-3 ovarian
COLO 205 colon = test system: COLO 205 colon
SW-620 colon = test system: SW-620 colon
A549 NSCLC = test system: A549 NSCLC
SF-295 CNS = test system: SF-295 CNS
DMS 114 small cell lung = test system: DMS 114 small cell lung
UACC-257 melanoma = test system: UACC-257 melanoma
ACHN renal = test system: ACHN renal
SNB-78 CNS = test system: SNB-78 CNS
OVCAR-5 ovarian = test system: OVCAR-5 ovarian
NCI-H460 lung = test system: NCI-H460 lung
CAKI-1 renal = test system: CAKI-1 renal
RXF-631 renal = test system: RXF-631 renal
SK-MEL-2 melanoma = test system: SK-MEL-2 melanoma
HCT-116 colon = test system: HCT-116 colon
M14 melanoma = test system: M14 melanoma
SNB-19 CNS = test system: SNB-19 CNS
DLD-1 colon = test system: DLD-1 colon
HL-60(TB) leukemia = test system: HL-60(TB) leukemia
EKVX NSCLC = test system: EKVX NSCLC
IGROV1 ovarian = test system: IGROV1 ovarian
UACC-62 melanoma = test system: UACC-62 melanoma
DMS 273 small cell lung = test system: DMS 273 small cell lung
NCI-H522 lung = test system: NCI-H522 lung
U251 CNS = test system: U251 CNS
M19-MEL melanoma = test system: M19-MEL melanoma
OVCAR-4 ovarian = test system: OVCAR-4 ovarian
KM20L2 colon = test system: KM20L2 colon
RXF 393 renal = test system: RXF 393 renal
SK-OV-3 ovarian = test system: SK-OV-3 ovarian
SF-268 CNS = test system: SF-268 CNS
786-0 renal = test system: 786-0 renal
HCC-2998 colon = test system: HCC-2998 colon
NCI-H23 lung = test system: NCI-H23 lung
HT29 colon = test system: HT29 colon
A498 renal = test system: A498 renal
XF 498 CNS = test system: XF 498 CNS
SN12C renal = test system: SN12C renal
K-562 leukemia = test system: K-562 leukemia
SNB-75 CNS = test system: SNB-75 CNS
TK-10 renal = test system: TK-10 renal
OVCAR-8 ovarian = test system: OVCAR-8 ovarian
SK-MEL-5 melanoma = test system: SK-MEL-5 melanoma
UO-31 renal = test system: UO-31 renal
RPMI-8226 leukemia = test system: RPMI-8226 leukemia
HCT-15 colon = test system: HCT-15 colon
MALME-3M melanoma = test system: MALME-3M melanoma
HOP-62 NSCLC = test system: HOP-62 NSCLC
SF-539 CNS = test system: SF-539 CNS
MOLT-4 leukemia = test system: MOLT-4 leukemia

Measured: TGI

COc1cc(-c2ccccc2)c(OC)cc1CCl
> 100 µM: all assays above
